The assay relates to cancer cell lines. As to the kind of experiment: In vitro combination studies with standard chemotherapeutic agents and signal transduction inhibitors. The assay is classed as cell-based. The note with it: with standard chemotherapeutic agents such as taxol, and novel signal transduction inhibitors. The text has this: CC001 is a low molecular weight mixed kinase inhibitor (MKI) with potent in vitro inhibitory activity against a variety of kinases.

For the compound `COc1ccc2cc(-c3n[nH]c4ccc(-c5n[nH]c(CN6CCOCC6)n5)cc34)ccc2c1` [CC001, 3-(6-Methoxynaphthalen-2-yl)-5-(5-Morpholin-4-Ylmethyl-1H-[1,2,4]Triazol-3-yl)-1H-Indazole], the “antiproliferative activity in combination” value is listed as “additive and/or synergistic antiproliferative activity”.

These data come from patent US20050107386A1, “Methods of treating diseases and disorders by targeting multiple kinases” (priority 2003, published 2005).
